Test results as given in patent US20030211589A1, “Short peptides from the b4 and b5 regions kinases which selectively modulate protein activity” (priority 2002, published 2003).
The star is where a group is joined. Stearoyl = CCCCCCCCCCCCCCCCCC(=O)*

Assays:
[1] = tested on: fracture site on a rabbit ulna; test: Rabbit ulnar osteotomy model of bone remodeling (histology); type: in vivo, New Zealand White rabbits; details: peptide mixture 0.3 cm^3 applied locally to fractured area, 4 weeks, vs untreated osteotomy; FIG. 6
Description: The rabbit ulnar osteotomy models described by Bouxsein et al., at the 45th Annual Meeting, Orthopedic Research Society, Anaheim, Calif. (1999), were employed to assess the ability of the B4-5 peptide K099B901 (ALK4-derived peptide) to accelerate bone remodeling.
Bilateral mid-ulnar osteotomies were made in the front limbs of male New Zealand White rabbits using an oscillating saw. The preparation of the peptide was as follows: 40 mg of peptide were dissolved in 200 μl of DMSO (Sigma) and 800 μl of double distilled water. The solution was mixed with 100 mg of methyl cellulose (Sigma) and 100 mg of carboxymethyl cellulose (Serva).
The K099B901 peptide mixture (0.3 cm^3) was locally applied to the fractured area. An untreated osteotomy served as a control. Radiographs of the ulna were taking weekly for 4 weeks. The rabbits were then sacrificed and the fractured areas were taken for bone histology. The bone tissue was fixated in 4% formaldehide and then soaked in 10% formic acid for decalcification. The decalcified tissue was imbedded in paraffin wax, serially sectioned at 5μ and stained with indigo-carmine.

[2] = tested on: HNK-1-positive neural crest cells from neural primordia explants; test: Emigration of neural crest cells from neural primordia explants (HNK-1 immunostaining); type: cell-based, quail; details: 5 μM peptide, 24 hours, serum-free medium, compared to control; FIG. 5
From the text: The procedure for explants of neural primordia is described in greater detail in Sela-Donenfeld and Kalcheim (Development, 1999, in press), the teaching of which are incorporated herein by reference.
The trunk region of 16 somite-old quail embryos was separately sectioned at the level of the segmental plate plus the last 2 epithelial somite pairs. Neural primordia consisting of the neural tube and premigratory neural crest cells were isolated from adjacent tissues with 25% pancreatin in PBS, transferred to PBS supplemented with 5% newborn calf serum to stop enzymatic activity and washed in serum-free culture medium prior to explantation. The neural primordia were then explanted onto multi-well chamber slides that were pre-coated with fibronectin (50 μg/ml) for 1 hour. The neural primordia were cultured in 50 μl serum-free SFRI medium (Berganton, France) in the absence or presence of B4-5 peptide—K099B901, in a final concentration of 5 μM and incubated in a humid chamber for 24 hours. At the end of the incubation, the primordia were gently washed with PBS and fixed with Bouin's fluid, washed 3 times with PBS and immunostained with 50 μl of monoclonal antibodies against HNK-1 for 1 h at room temperature. Excess HNK-1 antibodies were washed 3 times with PBS. The samples were further incubated with 50 μl of a secondary fluorescent antibody, GAM-FITC for 1 h at room temperature. […]

[3] = tested on: Human Fetal lung fibroblasts (HFL-1); test: HFL-1 fibroblast cell proliferation (methylene blue staining); type: cell-based; details: peptide 0-10 μM, 48 hours, vs control without peptide; FIG. 4
Description: Human Fetal lung fibroblasts (HFL-1) were obtained from the American Type Culture Collection (Manassas, Va.).
Culture medium was prepared from F-12K (Gibco), penicillin/streptomycin/glutamine (penicillin—100U/ml; streptomycin—100U/ml; glutamine—2 mM), 0.5% fetal calf serum and […] ascorbic acid. A suspension of HFL-1 cells at 2.22×10^5 cell/ml was prepared in the above described culture medium.
A series of B4-5 peptide stock solution was prepared by diluting a […] solution of the B4-5 peptide in 100% DMSO, with phosphate buffered saline (PBS) containing 0.1% BSA. The concentration of B4-5 peptide in each stock solution was adjusted to […] the desired concentration of the B4-5 peptide in the assay mixture. Twenty μl of peptide stock solution were placed at the bottom of each well in a 96-well flat bottom tissue culture plate, six replications for each concentration. BSA solution containing 1% DMSO with no added peptide served as a control. 180 μl of the HFL-1 cell suspension were added to each well (40,000 cells per well). The cells were incubated with the peptide (final concentrations of 0-10μM), for 48 hours at 37° C. in a 5% CO2 humidified incubator. At the end of the incubation the cells were fixed with buffered formaline (200 μl/well) for 1 h at room temperature. […] The O.D. was read at 595 nm to determine the number of cells per well. […]

## K099B901: B4-5 peptide K099B901 (ALK4-derived peptide), SEQ ID NO. 30, FIG. 3 (Stearoyl-GDNKDNGTWT-NH2; SMILES CCCCCCCCCCCCCCCCCC(=O)NCC(=O)N[C@@H](CC(=O)O)C(=O)N[C@@H](CC(N)=O)C(=O)N[C@@H](CCCCN)C(=O)N[C@@H](CC(=O)O)C(=O)N[C@@H](CC(N)=O)C(=O)NCC(=O)N[C@H](C(=O)N[C@@H](Cc1c[nH]c2ccccc12)C(=O)N[C@H](C(N)=O)[C@@H](C)O)[C@@H](C)O)
[1]
  tissue formed at the fracture site (bone histology): a bone like bone-tissue was formed leading to a genuine regeneration
[2]
  outgrowth of HNK-1-positive neural crest cells from the explant: remarkable outgrowth of HNK-1—positive neural crest cells from the explant
[3]
  stimulation of cell proliferation of the HFL-1 cells: exceeding 2 ×
